1 substance from patent publication US20240285670A1, “THERAPEUTIC TREATMENT OF TUMORS BY BLOCKING THE HEME SYNTHESIS-EXPORT AXIS” (Università degli Studi di Torino, priority 2021, published 2024) can be followed below.

What all share (assay type): cell-based, human
The test system of data set [1] is BTECs. The data set is described as follows: Heme content in BTECs. The note with it: FLVCR1a knockdown vs scramble shRNA BTECs. An excerpt:
(A) Frequency (%) of patient tumors with overexpression of FLVCR1 compared to their matched normal tissues across multiple cancer types. The number of patients showing tumor FLVCR1 overexpression relative to the total number of patients examined are indicated in the plot. Data derive from the BioXpress (Wan et al., 2015). […] Transcript abundance, normalized to beta-actin mRNA expression (for SHSY-5Y cells) or to 18s mRNA (for BTECs), is expressed as a fold increase over a calibrator sample. Data represent mean±SEM, n=4. For statistical analyses, an unpaired Student's t-test was used; ***p<0.001. (C, E) Western blot analysis of FLVCR1a expression in SHSY-5Y cells (C) and BTECs (E). […] Band intensities were measured by densitometry and normalized to vinculin expression. […] Values are expressed as pmol heme/mg protein. […] Values are expressed as pmol heme/mg protein. […]
Intracellular heme concentration was measured using a fluorescence assay, as previously reported (Sinclair et al., 2001). […] Fluorescence (wavelength: excitation 405 nm-emission 660-720 nm) of the resultant protoporphyrin was assessed on a Glomax Multi Detection System (Promega Corporation, Madison WI, USA).
The endogenous protoporphyrin content (measured in parallel unheated samples in oxalic acid) was subtracted. […] Results were expressed as relative fluorescence intensity or, alternatively, as pmol of heme/mg total protein.

Data set [2] has as its system SH-SY5Y cells. Put plainly: Activity of mitochondrial ETC complexes I-IV in SHSY-5Y cells. The note with it: FLVCR1a-silenced vs scramble shRNA SH-SY5Y cells. The source says:
(§1) Results were expressed as nmol NAD*/min/mg mitochondrial protein for complex I, nmol reduced cytochrome c/min/mg mitochondrial protein for complexes II-III, nmol oxidized cytochrome c/min/mg mitochondrial protein for complex IV. Data represent mean±SEM, n=3. For statistical analyses, an unpaired Student's t-test was used; *=p<0.05, **=p<0.01, *=p<0.001. […] Results are expressed as nmol/mg mitochondrial proteins. Data represent mean±SEM, n=3. For statistical analyses, an unpaired Student's t-test was used; *=p<0.05. […] Results are expressed as pmol CO2/h/mg protein. Data represent mean±SEM, n=3. For statistical analyses, an unpaired Student's t-test was used; **=p<0.01. […] Results were expressed as nmol NAD*/min/mg mitochondrial protein for complex I, nmol reduced cytochrome c/min/mg mitochondrial protein for complexes II-III, nmol oxidized cytochrome c/min/mg mitochondrial protein for complex IV. […] Results are expressed as nmol/mg mitochondrial proteins. […] Results are expressed as pmol CO2/h/mg protein. […] (H) TCA cycle enzymes activities are reported in boxes and expressed as mU/mg mitochondrial proteins. […] Results were expressed as nmol NAD^+/min/mg mitochondrial protein for complex I, nmol reduced cytochrome c/min/mg mitochondrial protein for complexes II-III, nmol oxidized cytochrome c/min/mg mitochondrial protein for complex IV. […] Results are expressed as nmol/mg mitochondrial proteins. […]

For data set [3], the system named is BTECs. The data set is described as follows: Mitochondrial ATP levels in BTECs. The note with it: FLVCR1a-silenced vs scramble shRNA BTECs.
Source text: as §1

“FLVCR1a shRNA: shRNA specifically down-regulating FLVCR1a without targeting FLVCR1b; pLKO.1 lentiviral clone TRCN0000059599, antisense SEQ ID No.: 2 (antisense TTGCTAATGATGCTGTACTGG; sense CCAGTACAGCATCATTAGCAA)”: in data set [1], the “heme levels at the steady state” value is recorded as “increased heme levels”. In addition, the “activity of ETC complexes” value in data set [2] is “enhanced activity of ETC complexes”. In addition, the “mitochondrial ATP levels” value in data set [3] is reported as “increased mitochondrial ATP levels”.
